The target of test [1] is T1, human α1 adrenoceptor subtype D (Homo sapiens, UniProt P25100).
T1 construct: expressed in transfected cells; host or cells: CHO-K1
T1 sequence (P25100 1-572): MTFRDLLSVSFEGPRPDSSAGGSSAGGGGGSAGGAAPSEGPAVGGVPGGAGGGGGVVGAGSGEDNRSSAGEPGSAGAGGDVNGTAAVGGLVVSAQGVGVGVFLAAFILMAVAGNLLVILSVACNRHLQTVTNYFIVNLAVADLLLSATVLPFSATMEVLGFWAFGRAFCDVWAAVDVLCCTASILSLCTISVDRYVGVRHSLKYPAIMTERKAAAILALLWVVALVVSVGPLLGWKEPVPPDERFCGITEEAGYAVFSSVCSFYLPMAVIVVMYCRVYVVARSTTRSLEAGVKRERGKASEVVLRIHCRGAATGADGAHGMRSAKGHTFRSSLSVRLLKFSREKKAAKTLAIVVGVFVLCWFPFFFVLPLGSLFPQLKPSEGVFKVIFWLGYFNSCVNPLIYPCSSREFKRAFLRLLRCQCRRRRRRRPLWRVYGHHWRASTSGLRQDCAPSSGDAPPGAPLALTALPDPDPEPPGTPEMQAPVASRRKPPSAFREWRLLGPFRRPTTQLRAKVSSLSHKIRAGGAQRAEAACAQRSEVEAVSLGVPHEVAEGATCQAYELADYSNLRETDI
The experiment in a line: Phenylephrine-induced intracellular calcium (FLIPR Calcium 6) in CHO cells, α1D. Type of test: cell-based. The following applies: in words. On the procedure:
(§1) CHO-K1 cells were stably transfected with a plasmid containing human al-AR subtypes A, B and D in separate cell lines in DMEM-F12 medium with 10% FBS, 1% penicillin-streptomycin and 200 μg/mL Geneticin (G418, Invitrogen, Carlsbad, CA).
(§2) On the next day, CHO cells were treated with either vehicle (0.1% DMSO) or SUL-121 enantiomers for 30 min at 37° C. and stimulated with a 3-fold dilution series of PE (20 μM-100 pM). [Ca^2], was measured using the fluorescent FLIPR Calcium 6 assay kit (Molecular Devices) in immortalized CHO cells stably expressing the α1 adrenoceptor.
(§3) Initially, calcium responses induced by non-cumulative concentration series of phenylephrine were investigated using fluorescent measurements in α1A adrenoceptor-overexpressing CHO cells treated with SUL-150 and SUL-151 (FIG. 4). Fluorescent measurement data was processed and analyzed in SoftMax Pro 7 and expressed as % of baseline AUC with a 3-fold multiplier using an average of first 10 measurement points as baseline.
For orientation: Calcium assays in cells follow changes in intracellular calcium, usually with a dye or a luminescent sensor.

The target of another test is T2, α1A adrenoceptor (Homo sapiens, UniProt P35348).
T2 construct: expressed in transfected cells; host or cells: CHO-K1
T2 sequence (P35348 1-466): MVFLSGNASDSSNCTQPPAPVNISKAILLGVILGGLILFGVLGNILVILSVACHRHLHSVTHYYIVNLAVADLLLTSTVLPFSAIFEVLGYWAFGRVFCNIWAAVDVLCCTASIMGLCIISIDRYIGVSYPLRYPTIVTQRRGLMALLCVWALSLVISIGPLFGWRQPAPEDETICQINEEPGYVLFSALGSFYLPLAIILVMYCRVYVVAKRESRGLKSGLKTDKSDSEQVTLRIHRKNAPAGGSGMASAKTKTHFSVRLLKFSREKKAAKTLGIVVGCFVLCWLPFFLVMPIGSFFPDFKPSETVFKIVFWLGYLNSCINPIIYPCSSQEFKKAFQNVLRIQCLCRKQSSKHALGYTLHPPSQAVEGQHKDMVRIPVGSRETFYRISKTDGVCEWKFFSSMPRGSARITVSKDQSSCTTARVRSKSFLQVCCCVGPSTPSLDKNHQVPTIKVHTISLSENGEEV
The experiment in a line: Radiolabeled prazosin displacement binding assay in α1A adrenoceptor transgenic CHO cells. The text has this: We therefore explored whether SUL-150 could directly interact with the α1 adrenoceptor as a receptor antagonist.

Test [2] deals with T3, human α1 adrenoceptor subtype A (Homo sapiens, UniProt P35348).
T3 construct: expressed in transfected cells; host or cells: CHO-K1
T3 sequence (P35348 1-466): T2 sequence (P35348 1-466)
The experiment in a line: Phenylephrine-induced intracellular calcium (FLIPR Calcium 6) in CHO cells, α1A. The test is classed as cell-based. The protocol: as §1, §2, §3

The next test has as its system α1 adrenoceptor. The experiment in a line: Phenylephrine-induced constriction of isolated porcine intrarenal arteries (myography). The protocol:
Porcine kidneys were obtained from a local slaughterhouse (Kroon Vlees, Gotenburgweg 30, 9723 TM Groningen. The Netherlands) and transported on ice in normal physiological Krebs buffer containing 120 mM NaCl, 6 mM KCl, 2.5 mM CaCl2×2H2O, 1.2 mM MgCl2×6H2O, 1.2 mM NaH2PO4×H2O, 25 mM NaHCO3 and 11.4 mM D-(+)-Glucose monohydrate (all ingredients were purchased from Merck) in ultrapure water.
The renal artery tree was dissected from the kidney, cleaned of surrounding connective tissue and cut into equally-sized ring segments (2 mm in length). In some rings, endothelium denudation was performed by gentle rubbing of the intimal surface with a paper clip. Rings were mounted in organ baths as described previously (Buikema et al., 2000). Arterial rings were washed thoroughly by replacing Krebs buffer and allowed to equilibrate for a period of 60 min under 1.4 g of resting tension before they were assessed for viability by inducing 2 subsequent constrictions with KCl (60 mM). […] After washout and stabilization, rings were treated for 30 minutes by incubation with vehicle (0.1% DMSO), SUL-121, SUL-150 or SUL-151, followed by subsequent incubation with cumulative doses of phenylephrine.
Dose-dependent constriction responses to phenylephrine (10^−8M-10^−4M) were recorded in said isolated porcine intrarenal arteries. Buffer was warmed to 37° C. and aerated with 95% O2 and 5% CO2 before use.
Vascular constriction responses are expressed as percentage of final response to KCl. Data are expressed as mean±SEM. *p<0.05.
To explore the effects of the enantiomers of (6-hydroxy-2,5,7,8-tetramethylchroman-2-yl)(piperazin-1-yl)methanone (SUL-150 and SUL-151) on constriction of isolated porcine intrarenal arteries, cumulative dose response curves to the α1 adrenoceptor agonist phenylephrine (PE) were constructed in the presence and absence of SUL-150 and SUL-151.

In test [3] the target is T4, human α1 adrenoceptor subtype B (Homo sapiens, UniProt P35368).
T4 construct: expressed in transfected cells; host or cells: CHO-K1
T4 sequence (P35368 1-520): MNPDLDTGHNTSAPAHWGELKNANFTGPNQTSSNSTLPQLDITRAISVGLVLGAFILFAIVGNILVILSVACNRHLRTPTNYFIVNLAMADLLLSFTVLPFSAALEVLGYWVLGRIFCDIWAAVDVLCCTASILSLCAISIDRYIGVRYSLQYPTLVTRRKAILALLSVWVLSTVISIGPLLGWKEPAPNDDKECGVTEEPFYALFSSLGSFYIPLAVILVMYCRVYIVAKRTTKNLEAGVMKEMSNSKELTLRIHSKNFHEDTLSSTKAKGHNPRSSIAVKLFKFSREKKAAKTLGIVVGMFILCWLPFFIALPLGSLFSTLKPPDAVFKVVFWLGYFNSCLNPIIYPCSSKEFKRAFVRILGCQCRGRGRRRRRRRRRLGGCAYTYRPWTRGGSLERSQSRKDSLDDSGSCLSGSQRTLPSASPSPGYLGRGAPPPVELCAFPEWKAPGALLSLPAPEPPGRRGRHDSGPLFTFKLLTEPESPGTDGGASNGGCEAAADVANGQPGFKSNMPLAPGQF
The experiment in a line: Phenylephrine-induced intracellular calcium (FLIPR Calcium 6) in CHO cells, α1B. The following applies: in words. Type of test: cell-based. On the procedure: as §1, §2, §3

Take `Cc1c(C)c2c(c(C)c1O)CCC(C)(C(=O)N1CCNCC1)O2` (stereo not shown) [SUL-151, (6-hydroxy-2,5,7,8-tetramethylchroman-2-yl)(piperazin-1-yl)methanone]: the “effect on PE-induced calcium transients, α1 adrenoceptor subtype D” value in test [1] is “did not affect calcium transients”. For the same compound, the “concentrations at which [7-Methoxy-3H]-prazosin is displaced” value at α1A adrenoceptor was “higher than 10 μM”. For the same compound, the figures for the “logEC50 of phenylephrine-induced calcium influx, α1A” value in test [2] (10 μM test compound), in test [2] (30 μM test compound) and in test [2] (100 μM test compound) were −8.09 ± 0.10, −8.09 ± 0.11 and −7.98 ± 0.10, respectively. For the same compound, the “effect on PE-induced calcium transients, α1 adrenoceptor subtype A” value in test [2] (in words) is recorded as “did not affect calcium transients”. The “logEC50 of phenylephrine-induced constriction responses” value is listed as −5.82 ± 0.05^ with α1 adrenoceptor (10 μM test compound), −5.89 ± 0.04 with α1 adrenoceptor (30 μM test compound) and −5.77 ± 0.04^ in the test on α1 adrenoceptor (100 μM test compound). Besides, the “effect on PE-induced calcium transients, α1 adrenoceptor subtype B” value in test [3] is on record as “did not affect calcium transients”.

Values taken from patent US12156862B2, “Medicaments for the treatment of vasoconstriction related diseases or disorders” (Sulfateq B.V., priority 2017, dated 2024).
